Experimental data from BindingDB's records for doi:10.1021/jm00061a004 (1993).

Tests used:
CYP2D6 = CYP2D6 (Homo sapiens, UniProt P10635); test: Apparent inhibitory constant (Ki) for Bufuralol 1'-hydroxylation by human liver microsomes; conditions: probe bufuralol (1'-hydroxylation)
Cytochrome P450 2D6 [1] = target: T1, Cytochrome P450 2D6 (Homo sapiens, UniProt P10635); test: Inhibitory constant for cytochrome P450 2D6
Cytochrome P450 2D6 [2] = target: T1, Cytochrome P450 2D6; test: Inhibition of partially purified cytochrome P450 2D6 1'-hydroxybufuralol formation

T1 sequence (P10635 whole entry): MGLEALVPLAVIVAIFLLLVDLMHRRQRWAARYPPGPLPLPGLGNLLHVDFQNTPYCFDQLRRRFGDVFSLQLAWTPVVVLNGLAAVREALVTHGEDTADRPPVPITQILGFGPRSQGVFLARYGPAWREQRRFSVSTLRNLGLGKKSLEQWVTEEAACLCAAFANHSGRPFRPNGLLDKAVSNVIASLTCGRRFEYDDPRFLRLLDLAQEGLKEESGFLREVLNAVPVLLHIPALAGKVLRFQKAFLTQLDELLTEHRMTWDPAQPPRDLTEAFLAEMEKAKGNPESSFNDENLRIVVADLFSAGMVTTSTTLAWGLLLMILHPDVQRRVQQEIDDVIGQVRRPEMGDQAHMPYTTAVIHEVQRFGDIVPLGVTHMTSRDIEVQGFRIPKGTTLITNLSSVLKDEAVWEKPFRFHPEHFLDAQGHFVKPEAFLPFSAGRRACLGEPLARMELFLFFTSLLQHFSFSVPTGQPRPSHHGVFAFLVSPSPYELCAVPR
Chain of CYP2D6 (P10635 whole entry): as above

Work on `COC(=O)C1=CO[C@@H](C)[C@H]2CN3CCc4c([nH]c5ccccc45)[C@@H]3C[C@H]12` yielded a Ki (CYP2D6) of 4.6 nM, a Ki (Cytochrome P450 2D6 [1]) of 3.3 nM and a Ki (Cytochrome P450 2D6 [2]) of 5.7 nM.
